Several values for one entry are separate records, joined by “and”; a condition that tells them apart may be missing. Equal entries are not always repeated.
How the values were obtained:
[1] = molecular target: T1, Peroxisome proliferator-activated receptor gamma (Homo sapiens, UniProt P37231)
T1 sequence (P37231 whole entry): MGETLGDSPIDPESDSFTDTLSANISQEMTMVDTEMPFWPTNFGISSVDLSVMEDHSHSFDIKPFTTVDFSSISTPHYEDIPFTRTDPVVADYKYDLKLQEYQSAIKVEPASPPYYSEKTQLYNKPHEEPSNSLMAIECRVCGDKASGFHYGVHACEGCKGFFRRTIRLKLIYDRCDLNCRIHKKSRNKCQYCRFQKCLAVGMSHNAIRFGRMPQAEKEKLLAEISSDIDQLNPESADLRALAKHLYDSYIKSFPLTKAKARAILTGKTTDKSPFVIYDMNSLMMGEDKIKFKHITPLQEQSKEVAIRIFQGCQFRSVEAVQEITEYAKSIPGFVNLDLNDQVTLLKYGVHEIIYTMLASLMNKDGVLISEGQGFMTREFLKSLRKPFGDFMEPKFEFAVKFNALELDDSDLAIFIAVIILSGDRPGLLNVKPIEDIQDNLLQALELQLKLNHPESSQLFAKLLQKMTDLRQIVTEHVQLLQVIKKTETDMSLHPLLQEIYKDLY
Description: In vitro agonist efficacy against PPAR gamma along with 100 nM BRL-49653

[2] = molecular target: T2, Retinoic acid receptor RXR-gamma (Homo sapiens, UniProt P48443); assay: Binding affinity against RXR gamma receptor using [3H]9-cis-RA as radioligand in CV-1 cells; format: cell-based, Cercopithecidae
T2 sequence (P48443 whole entry): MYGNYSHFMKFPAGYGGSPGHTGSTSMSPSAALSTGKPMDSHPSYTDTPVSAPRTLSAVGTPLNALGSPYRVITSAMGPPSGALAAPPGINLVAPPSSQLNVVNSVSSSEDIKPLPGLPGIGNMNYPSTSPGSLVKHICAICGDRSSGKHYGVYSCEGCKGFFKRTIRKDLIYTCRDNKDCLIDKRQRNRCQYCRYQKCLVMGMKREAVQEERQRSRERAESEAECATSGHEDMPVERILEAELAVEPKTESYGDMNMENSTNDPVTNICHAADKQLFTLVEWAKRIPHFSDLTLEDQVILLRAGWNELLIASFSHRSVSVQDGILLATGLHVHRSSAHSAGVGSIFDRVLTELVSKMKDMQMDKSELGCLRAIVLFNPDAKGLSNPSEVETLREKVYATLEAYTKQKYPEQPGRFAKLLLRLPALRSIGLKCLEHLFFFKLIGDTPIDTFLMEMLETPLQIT

[3] = molecular target: T3, Retinoic acid receptor gamma (Homo sapiens, UniProt P13631); assay: Displacement of [3H]ATRA from RAR gamma receptor expressed in CV-1 cells; format: cell-based, Cercopithecidae
T3 sequence (P13631 whole entry): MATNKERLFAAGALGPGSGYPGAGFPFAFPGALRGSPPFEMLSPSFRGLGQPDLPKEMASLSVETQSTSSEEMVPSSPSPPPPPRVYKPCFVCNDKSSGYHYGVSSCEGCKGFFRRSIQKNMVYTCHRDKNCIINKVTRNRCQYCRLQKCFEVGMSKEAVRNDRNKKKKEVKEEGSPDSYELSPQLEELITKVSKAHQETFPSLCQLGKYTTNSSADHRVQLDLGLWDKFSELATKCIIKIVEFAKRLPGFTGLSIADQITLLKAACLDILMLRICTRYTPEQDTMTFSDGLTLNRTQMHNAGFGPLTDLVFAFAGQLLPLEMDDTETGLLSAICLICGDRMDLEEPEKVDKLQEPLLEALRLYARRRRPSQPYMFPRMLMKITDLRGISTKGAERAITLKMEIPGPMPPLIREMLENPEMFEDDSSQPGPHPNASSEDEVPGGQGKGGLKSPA

[4] = molecular target: T4, Retinoic acid receptor RXR-alpha (Homo sapiens, UniProt P19793); assay: biochemical
T4 sequence (P19793 whole entry): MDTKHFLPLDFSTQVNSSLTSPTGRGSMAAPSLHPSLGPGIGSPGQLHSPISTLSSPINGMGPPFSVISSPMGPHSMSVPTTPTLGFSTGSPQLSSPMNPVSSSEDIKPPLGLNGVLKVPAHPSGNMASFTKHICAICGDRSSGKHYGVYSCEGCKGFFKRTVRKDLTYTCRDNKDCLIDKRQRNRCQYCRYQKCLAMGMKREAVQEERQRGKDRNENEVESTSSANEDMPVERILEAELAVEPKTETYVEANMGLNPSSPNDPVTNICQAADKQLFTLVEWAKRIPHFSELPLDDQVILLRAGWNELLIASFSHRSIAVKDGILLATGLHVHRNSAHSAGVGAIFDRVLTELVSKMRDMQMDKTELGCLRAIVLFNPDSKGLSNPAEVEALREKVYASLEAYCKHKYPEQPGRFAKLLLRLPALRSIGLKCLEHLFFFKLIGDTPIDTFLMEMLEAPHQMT
Description: Binding affinity against RXR alpha receptor using [3H]9-cis-RA as radioligand in CV-1 cells

[5] = molecular target: T1, Peroxisome proliferator-activated receptor gamma; remark: listed apart in the source
Description: In vitro agonistic activity against PPAR gamma along with 100 nM BRL-49653

[6] = molecular target: T5, Retinoic acid receptor alpha (Homo sapiens, UniProt P10276); assay: Binding affinity against RAR alpha receptor using [3H]ATRA as radioligand in CV-1 cells; format: cell-based, Cercopithecidae
T5 sequence (P10276 whole entry): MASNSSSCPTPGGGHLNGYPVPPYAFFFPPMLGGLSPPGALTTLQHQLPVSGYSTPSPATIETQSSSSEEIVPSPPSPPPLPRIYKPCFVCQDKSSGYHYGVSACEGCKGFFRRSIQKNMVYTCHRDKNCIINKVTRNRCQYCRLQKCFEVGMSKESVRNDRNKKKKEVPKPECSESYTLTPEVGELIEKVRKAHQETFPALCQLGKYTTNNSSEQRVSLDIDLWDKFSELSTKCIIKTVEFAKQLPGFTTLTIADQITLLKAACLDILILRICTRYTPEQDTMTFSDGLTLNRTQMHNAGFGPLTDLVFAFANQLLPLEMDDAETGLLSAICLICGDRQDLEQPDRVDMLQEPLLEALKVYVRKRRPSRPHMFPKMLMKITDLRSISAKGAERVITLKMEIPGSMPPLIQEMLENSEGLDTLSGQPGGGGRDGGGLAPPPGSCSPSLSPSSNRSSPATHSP

[7] = molecular target: T4, Retinoic acid receptor RXR-alpha; assay: In vitro antagonist activity against RXR alpha in CV-1 cells; format: functional, cell-based, Cercopithecidae
[8] = molecular target: T6, Retinoic acid receptor RXR-beta (Homo sapiens, UniProt P28702); assay: Displacement of [3H]9-cis-RA from RXR beta receptor in CV-1 cells; format: cell-based, Cercopithecidae
T6 sequence (P28702 whole entry): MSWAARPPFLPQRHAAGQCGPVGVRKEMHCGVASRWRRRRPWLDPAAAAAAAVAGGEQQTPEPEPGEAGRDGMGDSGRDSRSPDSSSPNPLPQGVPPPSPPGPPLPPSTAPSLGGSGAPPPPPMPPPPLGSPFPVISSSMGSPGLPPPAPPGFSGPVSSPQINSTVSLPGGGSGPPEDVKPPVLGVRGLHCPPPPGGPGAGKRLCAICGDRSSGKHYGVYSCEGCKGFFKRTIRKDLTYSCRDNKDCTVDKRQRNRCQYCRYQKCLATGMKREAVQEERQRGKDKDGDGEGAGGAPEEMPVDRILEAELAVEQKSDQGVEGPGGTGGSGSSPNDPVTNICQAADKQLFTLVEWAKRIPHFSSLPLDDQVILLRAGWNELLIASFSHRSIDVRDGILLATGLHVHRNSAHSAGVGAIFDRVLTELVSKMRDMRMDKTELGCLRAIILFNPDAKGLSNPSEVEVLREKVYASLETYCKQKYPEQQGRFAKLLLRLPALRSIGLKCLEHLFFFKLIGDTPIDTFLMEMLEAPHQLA

[9] = molecular target: T7, Retinoic acid receptor beta (Homo sapiens, UniProt P10826); assay: Binding affinity against RAR beta receptor using [3H]ATRA as radioligand in CV-1 cells; format: cell-based, Cercopithecidae
T7 sequence (P10826 whole entry): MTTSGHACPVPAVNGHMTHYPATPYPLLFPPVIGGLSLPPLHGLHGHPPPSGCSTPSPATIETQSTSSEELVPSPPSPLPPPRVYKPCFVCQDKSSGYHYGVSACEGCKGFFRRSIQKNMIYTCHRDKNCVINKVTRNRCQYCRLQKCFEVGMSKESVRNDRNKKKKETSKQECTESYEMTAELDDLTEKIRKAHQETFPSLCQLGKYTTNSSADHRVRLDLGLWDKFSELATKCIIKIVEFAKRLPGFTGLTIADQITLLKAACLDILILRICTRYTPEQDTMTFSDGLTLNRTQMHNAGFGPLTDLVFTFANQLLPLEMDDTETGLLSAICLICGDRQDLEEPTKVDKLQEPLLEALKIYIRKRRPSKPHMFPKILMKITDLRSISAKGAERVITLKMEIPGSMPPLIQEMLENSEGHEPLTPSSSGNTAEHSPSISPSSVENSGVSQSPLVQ

[10] = molecular target: T8, Retinoic acid receptor alpha (Homo sapiens) (UniProt P10276); assay: Agonist synergy against RAR alpha was tested along with 3 nM TTNPB; format: functional; details: Cercopithecidae
T8 sequence (whole entry): T5 sequence (P10276 whole entry)

[11] = molecular target: T3, Retinoic acid receptor gamma; assay: Displacement of [3H]ATRA from RAR gamma receptor in CV-1 cells; […]; format: cell-based, Cercopithecidae
[12] = molecular target: T3, Retinoic acid receptor gamma; assay: Binding affinity against RAR gamma receptor using [3H]ATRA as radioligand in CV-1 cells; format: cell-based, Cercopithecidae
[13] = Area under curve at 0-8 hr in IRC mice after peroral administration; format: ADME, organism-based; parameters: time < 8 hr, route oral; details: mouse, in vivo, po
[14] = Cmax value in IRC mice; format: ADME, organism-based; details: mouse, in vivo
[15] = Tmax value in IRC mice; format: ADME, organism-based; details: mouse, in vivo

Row | EC50 [1] [nM] | Ki [2] [nM] | Ki [3] [nM] | EC50 [5] [nM] | Ki [6] [nM] | IC50 [7] [nM] | Ki [8] [nM] | Ki [9] [nM] | Synergy [10] [nM] | Ki [12] [nM] | AUC(0-t) at 8 h [13] [ng·h/mL] | Cmax [14] | Tmax [15] [h] | Structure (SMILES) | Ki [4] [nM] | Ki [11] [nM]
1 | 29 | 23.6 | > 10000 | 15.1 | > 10000 | 10.7 | 9.9 | > 10000 | 9.4 |  |  |  |  | CCCOc1c(\C(C)=C/C=C/C(C)=C/C(=O)O)cc(C(C)C)cc1C(F)(F)C(F)(F)F | 85.8 | 
2 | 63 | 13.2 |  | 6.4 | 8300 | 6.8 | 11.5 | 5680 | 1.8 | > 10000 | 17700 | 3690 ng/mL and 8.41 µM | 3 | CC(/C=C/C(F)=C(/C)c1cc(C(C)(C)C)cc(C(C)(C)C)c1OCC(F)F)=C\C(=O)O |  | 

Row | Structure (SMILES) | EC50 [1] [nM] | Ki [2] [nM] | Ki [3] [nM] | EC50 [5] [nM] | Ki [6] [nM] | IC50 [7] [nM] | Ki [8] [nM] | Ki [9] [nM] | Synergy [10] [nM] | Ki [12] [nM] | AUC(0-t) at 8 h [13] [ng·h/mL] | Cmax [14] | Tmax [15] [h] | Ki [4] [nM] | Ki [11] [nM]
3 | C/C(=C/C=C/C(C)=C/C(=O)O)c1cc(-c2ccco2)cc(C(C)C)c1OCC(F)F | 37 |  |  | 7.4 |  | 3.6 |  |  | 1.2 |  |  |  |  | 3 | > 10000
